Results reported in PubChem BioAssay (NCI).
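These data come from cells grown in 96-well plates and exposed to compound for 48 hours at five concentrations. The concentration for full growth arrest is given as TGI.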

How the values were obtained:
Test in all cases: NCI-60 cell line screen, 48 h
IGROV1 ovarian = test system: IGROV1 ovarian
SK-MEL-28 melanoma = test system: SK-MEL-28 melanoma
PC-3 prostate = test system: PC-3 prostate
RPMI-8226 leukemia = test system: RPMI-8226 leukemia
NCI-H460 lung = test system: NCI-H460 lung
M14 melanoma = test system: M14 melanoma
SF-268 CNS = test system: SF-268 CNS
U251 CNS = test system: U251 CNS
HCT-116 colon = test system: HCT-116 colon
OVCAR-4 ovarian = test system: OVCAR-4 ovarian
CAKI-1 renal = test system: CAKI-1 renal
KM12 colon = test system: KM12 colon
SN12C renal = test system: SN12C renal
NCI-H522 lung = test system: NCI-H522 lung
SR leukemia = test system: SR leukemia
UACC-62 melanoma = test system: UACC-62 melanoma
CCRF-CEM leukemia = test system: CCRF-CEM leukemia
SK-MEL-2 melanoma = test system: SK-MEL-2 melanoma
786-0 renal = test system: 786-0 renal
COLO 205 colon = test system: COLO 205 colon
OVCAR-8 ovarian = test system: OVCAR-8 ovarian
SNB-75 CNS = test system: SNB-75 CNS
DU-145 prostate = test system: DU-145 prostate
NCI-H23 lung = test system: NCI-H23 lung
HCC-2998 colon = test system: HCC-2998 colon
HOP-62 NSCLC = test system: HOP-62 NSCLC
MDA-MB-435 = test system: MDA-MB-435
NCI/ADR-RES ovarian = test system: NCI/ADR-RES ovarian
MOLT-4 leukemia = test system: MOLT-4 leukemia
UO-31 renal = test system: UO-31 renal
HL-60(TB) leukemia = test system: HL-60(TB) leukemia
UACC-257 melanoma = test system: UACC-257 melanoma
T-47D breast = test system: T-47D breast
SNB-19 CNS = test system: SNB-19 CNS
LOX IMVI melanoma = test system: LOX IMVI melanoma
HOP-92 NSCLC = test system: HOP-92 NSCLC
EKVX NSCLC = test system: EKVX NSCLC
HT29 colon = test system: HT29 colon
MDA-MB-231 breast = test system: MDA-MB-231 breast
OVCAR-3 ovarian = test system: OVCAR-3 ovarian
SK-OV-3 ovarian = test system: SK-OV-3 ovarian
SF-539 CNS = test system: SF-539 CNS
SF-295 CNS = test system: SF-295 CNS
ACHN renal = test system: ACHN renal
RXF 393 renal = test system: RXF 393 renal
K-562 leukemia = test system: K-562 leukemia
HS 578T breast = test system: HS 578T breast
HCT-15 colon = test system: HCT-15 colon
MALME-3M melanoma = test system: MALME-3M melanoma
A498 renal = test system: A498 renal
A549 NSCLC = test system: A549 NSCLC
TK-10 renal = test system: TK-10 renal
OVCAR-5 ovarian = test system: OVCAR-5 ovarian
BT-549 breast = test system: BT-549 breast
MDA-N = test system: MDA-N
NCI-H226 lung = test system: NCI-H226 lung
MCF7 breast = test system: MCF7 breast
SK-MEL-5 melanoma = test system: SK-MEL-5 melanoma
SW-620 colon = test system: SW-620 colon

**Q.** Which results are given for `CC1=CC(C)C(C)N(CCNS(=O)(=O)c2ccc(C)cc2)c2ccccc21` (stereo unspecified)?
**A.** TGI (IGROV1 ovarian): 23.4 µM; TGI (SK-MEL-28 melanoma): 17.9 µM; TGI (PC-3 prostate): 30.5 µM; TGI (RPMI-8226 leukemia): 22.3 µM; TGI (NCI-H460 lung): 19.2 µM; TGI (M14 melanoma): 17.5 µM; TGI (SF-268 CNS): 19.6 µM; TGI (U251 CNS): 31.7 µM; TGI (HCT-116 colon): 17.7 µM; TGI (OVCAR-4 ovarian): 22.3 µM; TGI (CAKI-1 renal): > 31.6 µM; TGI (KM12 colon): 37.3 µM; TGI (SN12C renal): 17.1 µM; TGI (NCI-H522 lung): 61.1 µM; TGI (SR leukemia): > 31.6 µM; TGI (UACC-62 melanoma): 17.2 µM; TGI (CCRF-CEM leukemia): 25.6 µM; TGI (SK-MEL-2 melanoma): 18 µM; TGI (786-0 renal): 20.8 µM; TGI (COLO 205 colon): 17.3 µM; TGI (OVCAR-8 ovarian): 24 µM; TGI (SNB-75 CNS): 23.4 µM; TGI (DU-145 prostate): 24.7 µM; TGI (NCI-H23 lung): 26.9 µM; TGI (HCC-2998 colon): 30.2 µM; TGI (HOP-62 NSCLC): 27 µM; TGI (MDA-MB-435): 18.9 µM; TGI (NCI/ADR-RES ovarian): 29.5 µM; TGI (MOLT-4 leukemia): 23.5 µM; TGI (UO-31 renal): > 31.6 µM; TGI (HL-60(TB) leukemia): 22.8 µM; TGI (UACC-257 melanoma): 34.2 µM; TGI (T-47D breast): 22.3 µM; TGI (SNB-19 CNS): > 31.6 µM; TGI (LOX IMVI melanoma): 17 µM; TGI (HOP-92 NSCLC): 36.1 µM; TGI (EKVX NSCLC): > 31.6 µM; TGI (HT29 colon): 17.4 µM; TGI (MDA-MB-231 breast): 24.2 µM; TGI (OVCAR-3 ovarian): 17.1 µM; TGI (SK-OV-3 ovarian): > 100 µM; TGI (SF-539 CNS): 18.1 µM; TGI (SF-295 CNS): 19.5 µM; TGI (ACHN renal): 29.2 µM; TGI (RXF 393 renal): 17.7 µM; TGI (K-562 leukemia): 27.5 µM; TGI (HS 578T breast): 20.7 µM; TGI (HCT-15 colon): > 31.6 µM; TGI (MALME-3M melanoma): 23 µM; TGI (A498 renal): 19.2 µM; TGI (A549 NSCLC): > 31.6 µM; TGI (TK-10 renal): > 82.8 µM; TGI (OVCAR-5 ovarian): 31.1 µM; TGI (BT-549 breast): 31.7 µM; TGI (MDA-N): 18.8 µM; TGI (NCI-H226 lung): 17.8 µM; TGI (MCF7 breast): 19.8 µM

**Q.** How did the TGI (IGROV1 ovarian) turn out when `O=C1N[C@@H]2c3c(Br)sc(Br)c3C(=O)[C@@H]2O1` was run?
**A.** 11.6 µM

**Q.** And the TGI (SK-MEL-28 melanoma)?
**A.** 6.64 µM

**Q.** And the TGI (PC-3 prostate)?
**A.** 18.7 µM

**Q.** What about the TGI (RPMI-8226 leukemia) of the same compound?
**A.** 25.4 µM

**Q.** And the TGI (NCI-H460 lung)?
**A.** 27.7 µM

**Q.** And the TGI (M14 melanoma)?
**A.** 3.81 µM

**Q.** And the TGI (SF-268 CNS)?
**A.** 28.7 µM

**Q.** What about the TGI (U251 CNS) of the same compound?
**A.** 6.1 µM

**Q.** And the TGI (HCT-116 colon)?
**A.** 2.78 µM

**Q.** What about the TGI (OVCAR-4 ovarian) of the same compound?
**A.** 3.43 µM

**Q.** What about the TGI (CAKI-1 renal) of the same compound?
**A.** 2.37 µM

**Q.** What about the TGI (KM12 colon) of the same compound?
**A.** 26 µM

**Q.** And the TGI (SN12C renal)?
**A.** 8.1 µM

**Q.** What about the TGI (NCI-H522 lung) of the same compound?
**A.** 1.53 µM

**Q.** What about the TGI (SR leukemia) of the same compound?
**A.** 4.03 µM

**Q.** And the TGI (UACC-62 melanoma)?
**A.** 27.5 µM

**Q.** And the TGI (CCRF-CEM leukemia)?
**A.** 3.94 µM

**Q.** And the TGI (SK-MEL-2 melanoma)?
**A.** 37.1 µM

**Q.** What about the TGI (786-0 renal) of the same compound?
**A.** 19.8 µM

**Q.** And the TGI (COLO 205 colon)?
**A.** 6.58 µM

**Q.** And the TGI (OVCAR-8 ovarian)?
**A.** 4.52 µM

**Q.** What about the TGI (SNB-75 CNS) of the same compound?
**A.** 16.7 µM

**Q.** What about the TGI (DU-145 prostate) of the same compound?
**A.** 28.2 µM

**Q.** And the TGI (NCI-H23 lung)?
**A.** 7.35 µM

**Q.** What about the TGI (HCC-2998 colon) of the same compound?
**A.** 10.8 µM

**Q.** What about the TGI (HOP-62 NSCLC) of the same compound?
**A.** 42.7 µM

**Q.** And the TGI (MDA-MB-435)?
**A.** 6.33 µM

**Q.** What about the TGI (NCI/ADR-RES ovarian) of the same compound?
**A.** 18 µM

**Q.** And the TGI (MOLT-4 leukemia)?
**A.** 4.61 µM

**Q.** What about the TGI (UO-31 renal) of the same compound?
**A.** 24.8 µM

**Q.** What about the TGI (HL-60(TB) leukemia) of the same compound?
**A.** 1.96 µM

**Q.** And the TGI (UACC-257 melanoma)?
**A.** 8.76 µM

**Q.** And the TGI (T-47D breast)?
**A.** 27 µM

**Q.** What about the TGI (SNB-19 CNS) of the same compound?
**A.** 30.3 µM

**Q.** What about the TGI (LOX IMVI melanoma) of the same compound?
**A.** 3.54 µM

**Q.** What about the TGI (HOP-92 NSCLC) of the same compound?
**A.** 11.8 µM

**Q.** And the TGI (EKVX NSCLC)?
**A.** 4.44 µM

**Q.** What about the TGI (SK-MEL-5 melanoma) of the same compound?
**A.** 18.4 µM

**Q.** What about the TGI (HT29 colon) of the same compound?
**A.** 3.59 µM

**Q.** What about the TGI (MDA-MB-231 breast) of the same compound?
**A.** 5.83 µM

**Q.** And the TGI (OVCAR-3 ovarian)?
**A.** 3.38 µM

**Q.** What about the TGI (SK-OV-3 ovarian) of the same compound?
**A.** 32.7 µM

**Q.** And the TGI (SF-539 CNS)?
**A.** 24.1 µM

**Q.** What about the TGI (SW-620 colon) of the same compound?
**A.** 4.04 µM

**Q.** What about the TGI (SF-295 CNS) of the same compound?
**A.** 32.5 µM

**Q.** What about the TGI (ACHN renal) of the same compound?
**A.** 3.48 µM

**Q.** What about the TGI (RXF 393 renal) of the same compound?
**A.** 4.95 µM

**Q.** And the TGI (K-562 leukemia)?
**A.** 2.56 µM

**Q.** What about the TGI (HS 578T breast) of the same compound?
**A.** 78.7 µM

**Q.** And the TGI (HCT-15 colon)?
**A.** 4.05 µM

**Q.** What about the TGI (MALME-3M melanoma) of the same compound?
**A.** 7.63 µM

**Q.** What about the TGI (A498 renal) of the same compound?
**A.** 30.4 µM

**Q.** What about the TGI (A549 NSCLC) of the same compound?
**A.** 32.6 µM

**Q.** And the TGI (TK-10 renal)?
**A.** 10.5 µM

**Q.** And the TGI (OVCAR-5 ovarian)?
**A.** 27 µM

**Q.** And the TGI (BT-549 breast)?
**A.** 24.1 µM

**Q.** And the TGI (MDA-N)?
**A.** 6.44 µM

**Q.** And the TGI (NCI-H226 lung)?
**A.** 28.8 µM

**Q.** And the TGI (MCF7 breast)?
**A.** 12.6 µM
